Measured values as given in patent US7311918B2, “Rotavirus subunit vaccine” (Children's Hospital Medical Center, priority 1998, dated 2007).
Values joined by “and” are separate entries in the source; they are usually repeats but may differ in a detail not shown here. Identical values can stand only once. “Also recorded” adds a separate entry of the source. Like-named read-outs stand apart in the source and are kept apart here.

Columns and labels:
[1] = test system: EDIM virus (murine rotavirus); type: in vivo, BALB/c mice; settings: for Reduction in shedding: BALB/c mice
[2] = test system: rotavirus (EDIM viral lysate); type: in vivo, BALB/c mice; settings: mice immunized with MBP::VP6; intramuscularly with QS-21 versus intranasally with LT

| Substance | % Reduction in shedding ([1]; mouse, in vivo) | Mean reduction in rotavirus shedding (protection) ([1]; mouse, in vivo) | Shedding per mouse per day ([1]; mouse, in vivo) | Shedding, Day 7 ([1]; mouse, in vivo) | Shedding, Day 6 ([1]; mouse, in vivo) | Reduction in shedding ([1]; MBP::VP6 given intranasally with the adjuvant named) | Reduction in shedding ([1]; MBP::VP6 given orally with the adjuvant named) | Serum IgG response [2] |
| --- | --- | --- | --- | --- | --- | --- | --- | --- |
| Peptide 3: one of 11 overlapping synthetic peptides (18 to 31 amino acids) of the CD region of VP6, Table 10 (FSFPRVINSADGATTWYFNPVILRPNNVEV; Rotavirus VP6 fragment) | 57% | 57% | 96 | 0 | – | – | – | – |
| Peptide 9: one of 11 overlapping synthetic peptides (18 to 31 amino acids) of the CD region of VP6, Table 10 (VLADASETMLANVTSVRQEYAI; Rotavirus VP6 fragment) | 0% | did not elicit protection | 275 | – | – | – | – | – |
| Peptide 11: one of 11 overlapping synthetic peptides (18 to 31 amino acids) of the CD region of VP6, Table 10 (TDLITNYSPSREDNLQRVFTVASIRSMLVK; Rotavirus VP6 fragment) | 64% | 64% | 80 | 0 | 30 and 29 and 41 and 36 and 23 | – | – | – |
| Peptide 10: one of 11 overlapping synthetic peptides (18 to 31 amino acids) of the CD region of VP6, Table 10 (QEYAIPVGPVFPPGMNWTDLITNYSPSRED; Rotavirus VP6 fragment) | 0% | did not elicit protection | 1825 | 0 | – | – | – | – |
| RLSFQLMRPPNMTP [Peptide 6-14] | – | comparable protection to that of peptide 6; also recorded: nearly complete protection | – | – | – | – | – | – |
| 2: one of 11 overlapping synthetic peptides (18 to 31 amino acids) of the CD region of VP6, Table 10 (PDAERFSFPRVINSADGA; Rotavirus VP6 fragment) [Peptide 2] | – | 70% | – | – | – | – | – | – |
| Peptide 5: one of 11 overlapping synthetic peptides (18 to 31 amino acids) of the CD region of VP6, Table 10 (NGQVINTYQARFGTIVARNFDTIRLSFQLM; Rotavirus VP6 fragment) | 0% | did not elicit protection | 341 | – | – | – | – | – |
| Peptide 7: one of 11 overlapping synthetic peptides (18 to 31 amino acids) of the CD region of VP6, Table 10 (MTPAVTALFPNAQPFEHHATVGLTLRIDSA; Rotavirus VP6 fragment) | 18% | did not elicit protection | 185 | – | – | – | – | – |
| QS-21 [reference compound] | – | – | – | – | – | 43% | 59% | greater IgG response |
| Peptide 6: 25 mer synthetic peptide of the CD region of VP6 containing the 14-amino acid sequence RLSFQLMRPPNMTP, Table 10 (RNFDTIRLSFQLMRPPNMTPAVTAL; Rotavirus VP6 fragment) | 88% | 88% | 27 | 0 | – | – | – | – |
| 4: one of 11 overlapping synthetic peptides (18 to 31 amino acids) of the CD region of VP6, Table 10 (FNPVILRPNNVEVEFLLNGQVINTYQARF; Rotavirus VP6 fragment) [Peptide 4] | – | 77% | – | – | – | – | – | – |
